Converted amounts (≈) assume the structure as drawn. Where two headings read alike, the source gives them in different places.
Key:
[1] = test system: resistant mutants of KP 13368; test: MIC following resistance development; assay type: cell-based, Klebsiella; details: Klebsiella, OFKP13368, read-out: MIC of resistant mutants (in brackets)
Description: (§1) General Minimum Inhibitory Concentration (MIC) Protocol
(§2) 1. Grow up cultures of bacterial strains to be tested overnight.
(§3) 2. Dilute down overnight cultures to concentration of 1×10^6 bacteria/ml (OD0.01) in Tryptic soy broth (TSB).
(§4) 3. Add 100 μl of TSB media to column 2-column 12 in 96 well plate (keeping column 1 clear).
(§5) 4. Make up compound to a concentration of 64 μg/ml in water (or alternatively to twice the chosen maximum concentration to be tested).
(§6) 5. Add 100 μl of antibiotic solution to the 1st and 2nd columns.
(§7) 6. Using a multichannel pipette take 100 μl from the 2nd column wells and pipette into 3rd column wells and repeat down the 96 well plate (remembering to include controls i.e. uninfected media and media with no antibiotic).
(§8) 7. To each well (except uninfected control row H) add 100 μl of bacterially infected media at a concentration of 1×10^6/ml.
(§9) 8. This dilutes down the concentration of the antibiotic by half (top dose is therefore 32 μg/ml in column 1) and also gives you a starting bacterial concentration of 5×10^5/ml.
(§10) 9. Wrap plate with parafilm to prevent evaporation.
(§11) 10. Leave at desired temperature (37° C. unless specified elsewhere) for 20 hours.
(§12) 11. Next day check plates for growth and measure optical density (i.e. absorbance) at a wavelength of 600 nm (OD600).
(§13) An example of such a plate is shown in FIG. 1 where column A represents wells that receive the top dose 100 μl; column B represents wells that receive the top dose 100 μl+100 μl TSB; and column C represents wells that receive 100 μl TSB. Row H which is marked by a box labelled D represents a blank where the cells receive no bacteria.
(§14) The MIC of PP-A418 and colistin against the strains used in the time kill analysis of Example 31 following resistance development were measured. The MIC was measured using the general MIC protocol given above. The results are given in Table 14 below where the MIC values of resistant mutants are shown in the brackets.

[2] = test system: resistant mutants of KP 13438; test: MIC following resistance development; assay type: cell-based, Klebsiella; details: Klebsiella, OFKP13438, read-out: MIC of resistant mutants (in brackets)
Description: as §1, §2, §3, §4, §5, §6, §7, §8, §9, §10, §11, §12, §13, §14

[3] = test system: resistant mutants of KP 16; test: MIC following resistance development; assay type: cell-based, Klebsiella; details: Klebsiella, OFKP16, read-out: MIC of resistant mutants (in brackets)
Description: as §1, §2, §3, §4, §5, §6, §7, §8, §9, §10, §11, §12, §13, §14

A. baumannii ADP1 = test: General MIC protocol, Gram negative; assay type: cell-based; details: Acinetobacter baumannii
Method in brief: (§15)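 Compound was prepared at 64 μg/ml in water, serially halved across the plate and diluted twofold again by added inoculum. Final bacterial density was 5×10^5/ml in TSB. After 20 hours at 37° C, wells were scored for growth by OD600.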

A. baumannii NCTC 13302 = test: General MIC protocol, Gram negative; assay type: cell-based; details: Acinetobacter baumannii, NCTC13302
Method in brief: as §15

A. baumannii NCTC 13424 = test: General MIC protocol, Gram negative; assay type: cell-based; details: Acinetobacter baumannii, NCTC13424
Method in brief: as §15

A. baumannii UKA2 = test: General MIC protocol, Gram negative; assay type: cell-based; details: Acinetobacter baumannii
Method in brief: as §15

A. baumannii UKA7 = test: General MIC protocol, Gram negative; assay type: cell-based; details: Acinetobacter baumannii
Method in brief: as §15

A. baumannii W1 = test: General MIC protocol, Gram negative; assay type: cell-based; details: Acinetobacter baumannii
Method in brief: as §15

B. cenocepa K56-2 = test: General MIC protocol, Gram negative; assay type: cell-based
Method in brief: as §15

B. cepacia ATCC 17765 = test: General MIC protocol, Gram negative; assay type: cell-based; details: Burkholderia cepacia, ATCC17765
Method in brief: as §15

[4] = test system: B. cepacia CEP509 (LMG 18821); test: General MIC protocol, Gram negative; assay type: cell-based; details: Burkholderia cepacia, LMG18821
Method in brief: as §15

B. cepacia LMG 17997 = test: General MIC protocol, Gram negative; assay type: cell-based; details: Burkholderia cepacia, LMG17997
Method in brief: as §15

B. cepacia NCTC 10743 = test: General MIC protocol, Gram negative; assay type: cell-based; details: Burkholderia cepacia, NCTC10743
Method in brief: as §15

[5] = test system: B. multivorans C1576 (LMG 16660); test: General MIC protocol, Gram negative; assay type: cell-based; details: Burkholderia multivorans, LMG16660
Method in brief: as §15

[6] = test system: B. multivorans C1962 (LMG 16665); test: General MIC protocol, Gram negative; assay type: cell-based; details: Burkholderia multivorans, LMG16665
Method in brief: as §15

K. pneumonia NCTC 46704 = test: General MIC protocol, Gram negative; assay type: cell-based; details: Klebsiella pneumoniae, NCTC46704
Method in brief: as §15

NCTC 13438 = test: Effect of efflux pump inhibitors (EPIs) on MIC; assay type: cell-based, K. pneumoniae; details: for MIC: Klebsiella pneumoniae
Description: as §2, §3, §4
(§16) 4. Make up compound to a concentration of 64 μg/ml in water.
as §6
(§17) 6. Using a multichannel pipette take 100 μl from the 2nd column wells and pipette into 3rd column wells and repeat down the 96 well plate (remember to include controls i.e. uninfected media and media with no antibiotic).
(§18) 7. To each well (except uninfected control row H) add 50 μl/well of EPI at 4× final concentration in TSB.
(§19) 9. In wells used to test the effect of the EPI carbonyl cyanide 3-chlorophenylhydrazone (CCCP) the CCCP is added at 10 μg/ml final concentration.
(§20) 10. In wells used to test the effect of the EPI phenylalanine-arginine β-naphthylamide (PABN) the PABN is added at 25 μg/ml final concentration.
(§21) 11. In wells used to test the effect of the PABN+Mg, the PABN is added at 25 μg/ml final concentration, with 1 mM MgSO4 in TSB.
(§22) 12. Wrap plate with parafilm to prevent evaporation.
(§23) 13. Leave at desired temperature (37° C. unless specified elsewhere) for 20 hours.
(§24) 14. Next day check plates for growth and measure optical density (i.e. absorbance) at a wavelength of 600 nm (OD600).
(§25) Compound KMR-14-33 was tested against a range of bacterial species using the above protocol. Compound PP-A148 was also tested against a more limited range of bacterial species using the above protocol. For KMR-14-33 measurements were carried out for the compound alone, for the compound plus CCCP, for the compound plus PABN and for the compound plus PABN and plus Mg. For PP-A148 measurements were carried out for the compound alone and for the compound plus PABN.

NCTC 13424 = test: Effect of efflux pump inhibitors (EPIs) on MIC; assay type: cell-based, A. bauamnnii
Description: as §2, §3, §4, §16, §6, §17, §18, §19, §20, §21, §22, §23, §24, §25

SMILES: COc1cc2c(cc1OCCCC(=O)Nc1cc(C(=O)Nc3ccc4oc(C(=O)N5CCSCC5)cc4c3)n(C)c1)N=C[C@@H]1CCCN1C2=O [PP-A148, (S)-4-(4-((7-methoxy-5-oxo-2,3,5,11a-tetrahydro-1H-benzo-[e]pyrrolo[1,2-a][1,4]diazepin-8-yl)oxy)butanamido)-1-methyl-N-(2-(thiomorpholine-4-carbonyl)benzofuran-5-yl)-1H-pyrrole-2-carboxamide]
- MIC [1]: > 128 µg/mL
- MIC [2]: 64 µg/mL
- MIC [3]: 4 to 8 µg/mL

SMILES: COc1cc2c(cc1OCCCC(=O)Nc1cc(C(=O)Nc3ccc4sc(C(=O)N(C)C)cc4c3)n(C)c1)N=C[C@@H]1CCCN1C2=O [KMR-14-33, (S)—N-(2-(dimethylcarbamoyl)benzo[b]thiophen-5-yl)-4-(4-((7-methoxy-5-oxo-2,3,5,11a-tetrahydro-1H-benzo[e]pyrrolo[1,2-a][1,4]-diazepin-8-yl)oxy)butanamido)-1-methyl-1H-pyrrole-2-carboxamide]
- MIC (A. baumannii ADP1): 0.125 µg/mL (≈ 0.19 µM)
- MIC (A. baumannii NCTC 13302): 0.25 µg/mL (≈ 0.381 µM)
- MIC (A. baumannii NCTC 13424): 0.5 µg/mL (≈ 0.761 µM)
- MIC (A. baumannii UKA2): 0.5 µg/mL (≈ 0.761 µM)
- MIC (A. baumannii UKA7): 0.5 µg/mL (≈ 0.761 µM)
- MIC (A. baumannii W1): 1 µg/mL (≈ 1.52 µM)
- MIC (B. cenocepa K56-2): 2 µg/mL (≈ 3.05 µM)
- MIC (B. cepacia ATCC 17765): 0.125 µg/mL (≈ 0.19 µM)
- MIC [4]: 2 µg/mL (≈ 3.05 µM)
- MIC (B. cepacia LMG 17997): 0.125 µg/mL (≈ 0.19 µM)
- MIC (B. cepacia NCTC 10743): 1 to 2 µg/mL (≈ 1.52 to 3.05 µM)
- MIC [5]: 1 µg/mL (≈ 1.52 µM)
- MIC [6]: 2 µg/mL (≈ 3.05 µM)
- MIC (K. pneumonia NCTC 46704): 1 µg/mL (≈ 1.52 µM)
- MIC (NCTC 13438; NCTC13438, read-out: +CCCP MIC): 0.5 µg/mL (≈ 0.761 µM)
- MIC (NCTC 13438; NCTC13438, read-out: Control with no EPI MIC): 0.5 µg/mL (≈ 0.761 µM)
- +PABN MIC (NCTC 13438; NCTC 13438, PABN at 25 μg/ml): 0.125 µg/mL
- +PABN + Mg MIC (NCTC 13438; NCTC 13438, PABN at 25 μg/ml with 1 mM MgSO4): 0.25 µg/mL
- +PABN MIC (NCTC 13424; NCTC 13424, PABN at 25 μg/ml): 0.125 µg/mL
- +PABN + Mg MIC (NCTC 13424; NCTC 13424, PABN at 25 μg/ml with 1 mM MgSO4): 0.25 µg/mL
- MIC (NCTC 13424; read-out: +CCCP MIC): 0.25 µg/mL (≈ 0.381 µM)
- MIC (NCTC 13424; read-out: Control with no EPI MIC): 0.5 µg/mL (≈ 0.761 µM)

Reference: patent publication US10640507B2, “PBD antibacterial agents” (KING'S COLLEGE LONDON, priority 2015, dated 2020)
